Test results: patent US12421212B2, “Substituted benzenecarboxamides as IL-17A modulators” (DiCE Alpha, Inc., priority 2019, dated 2025)

Molecular target: T1, IL-17A/A (Homo sapiens, UniProt Q16552)
T1 construct: purchased Genscript Z03228
T1 sequence (Q16552 24-155): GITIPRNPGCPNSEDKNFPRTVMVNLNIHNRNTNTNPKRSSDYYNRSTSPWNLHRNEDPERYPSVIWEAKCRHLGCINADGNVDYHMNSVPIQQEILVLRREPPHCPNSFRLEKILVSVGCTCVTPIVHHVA
Test: IL-17A/A HEK-Blue Cell Assay
Type: cell-based
Settings: HEK-Blue IL-17A reporter cell line, SEAP readout at A630, 20 hours incubation with IL-17A/A, top concentration 10 uM, 1 uM or 0.3 uM; for IC50: read-out: IL-17A/A inhibition (pIC50) (converted)

| Structure (SMILES) | IC50 [µM] | IL-17A/A inhibition (pIC50) |
| --- | --- | --- |
| CCn1nccc1C(=O)N[C@H](C(=O)Nc1ccc([C@H](C)[C@@H](NC(=O)c2conc2C2CCNCC2)C(=O)N2CCC(C)(O)CC2)cc1F)[C@H]1CC[C@H](C)CC1 [Compound 442] | 0.01 to 0.1 |  |
| CCn1nccc1C(=O)N[C@H](C(=O)Nc1ccc([C@H](C)[C@@H](NC(=O)CC2CC2)C(=O)N2CCN(Cc3ccccc3)CC2)cc1F)[C@H]1CC[C@H](C)CC1 [Compound 443] | < 0.01 |  |
| CCC(=O)N[C@@H](C(=O)N1CCNC2(CC2)C1)[C@@H](C)c1ccc(NC(=O)[C@@H](NC(=O)c2nonc2CC)[C@H]2CC[C@H](C)CC2)c(F)c1 [Compound 444] | 0.01 to 0.1 |  |
| CCC(=O)N[C@@H](C(=O)N1CCN(CCO)CC1)[C@@H](C)c1ccc(NC(=O)[C@@H](NC(=O)c2nonc2CC)[C@H]2CC[C@H](C)CC2)c(F)c1 [Compound 445] | 0.01 to 0.1 |  |
| CCC(=O)N[C@@H](C(=O)N1CC(C(C)(C)O)C1)[C@@H](C)c1ccc(NC(=O)[C@@H](NC(=O)c2nonc2CC)[C@H]2CC[C@H](C)CC2)c(F)c1 [Compound 446] | < 0.01 |  |
| CCC(=O)N[C@@H](C(=O)N1C[C@@H](C)N[C@@H](C)C1)[C@@H](C)c1ccc(NC(=O)[C@@H](NC(=O)c2nonc2CC)[C@H]2CC[C@H](C)CC2)c(F)c1 [Compound 447] | 0.01 to 0.1 |  |
| CCC(=O)N[C@@H](C(=O)N1C[C@H](C)N(C(=O)CC)[C@@H](C)C1)[C@@H](C)c1ccc(NC(=O)[C@@H](NC(=O)c2nonc2CC)[C@H]2CC[C@H](C)CC2)c(F)c1 [Compound 448] | < 0.01 |  |
| CCC(=O)N[C@@H](C(=O)N1C[C@H](C)N(C(C)C)[C@@H](C)C1)[C@@H](C)c1ccc(NC(=O)[C@@H](NC(=O)c2nonc2CC)[C@H]2CC[C@H](C)CC2)c(F)c1 [Compound 449] |  | A (compounds having a pIC50 of greater than or equal 8 as A) |
| CCC(=O)N[C@@H](C(=O)N1CCN(Cc2ccccn2)CC1)[C@@H](C)c1ccc(NC(=O)[C@@H](NC(=O)c2nonc2CC)[C@H]2CC[C@H](C)CC2)c(F)c1 [Compound 450] | < 0.01 |  |
| CCC(=O)N[C@@H](C(=O)N1C[C@@H](C)N(C)[C@H](C)C1)[C@@H](C)c1ccc(NC(=O)[C@@H](NC(=O)c2nonc2CC)[C@H]2CC[C@H](C)CC2)c(F)c1 [Compound 451] | < 0.01 |  |
| CCC(=O)N[C@@H](C(=O)N1C[C@@H](C)N(C)[C@@H](C)C1)[C@@H](C)c1ccc(NC(=O)[C@@H](NC(=O)c2nonc2CC)[C@H]2CC[C@H](C)CC2)c(F)c1 [Compound 452] | < 0.01 |  |
| CCC(=O)N[C@@H](C(=O)N1CCN[C@H](C)C1)[C@@H](C)c1ccc(NC(=O)[C@@H](NC(=O)c2nonc2CC)[C@H]2CC[C@H](C)CC2)c(F)c1 [Compound 454] | 0.1 to 10 |  |
| CCC(=O)N[C@@H](C(=O)N(C)Cc1cncn1C)[C@@H](C)c1ccc(NC(=O)[C@@H](NC(=O)c2nonc2CC)[C@H]2CC[C@H](C)CC2)c(F)c1 [Compound 455] | 0.1 to 10 |  |
| CCC(=O)N[C@@H](C(=O)N1CCN(C)C[C@@H]1C)[C@@H](C)c1ccc(NC(=O)[C@@H](NC(=O)c2nonc2CC)[C@H]2CC[C@H](C)CC2)c(F)c1 [Compound 456] | < 0.01 |  |
| CCC(=O)N[C@@H](C(=O)N1CCN(C)C[C@H]1C)[C@@H](C)c1ccc(NC(=O)[C@@H](NC(=O)c2nonc2CC)[C@H]2CC[C@H](C)CC2)c(F)c1 [Compound 457] | < 0.01 |  |
| CCC(=O)N[C@@H](C(=O)N1CCN(C)CC1(C)C)[C@@H](C)c1ccc(NC(=O)[C@@H](NC(=O)c2nonc2CC)[C@H]2CC[C@H](C)CC2)c(F)c1 [Compound 458] | < 0.01 |  |
| CCC(=O)N[C@@H](C(=O)N1CCN(C)[C@@H](C)C1)[C@@H](C)c1ccc(NC(=O)[C@@H](NC(=O)c2nonc2CC)[C@H]2CC[C@H](C)CC2)c(F)c1 [Compound 460] | < 0.01 |  |
| CCC(=O)N[C@H](Cc1ccc(NC(=O)[C@@H](NC(=O)c2nonc2CC)[C@H]2CC[C@H](C)CC2)c(F)c1)C(=O)N1CCN(C)[C@@H](C)C1 [Compound 462] |  | A (compounds having a pIC50 of greater than or equal 8 as A) |
| CCC(=O)N[C@@H](C(=O)N1CCN(C)C(C)(C)C1)[C@@H](C)c1ccc(NC(=O)[C@@H](NC(=O)c2nonc2CC)[C@H]2CC[C@H](C)CC2)c(F)c1 [Compound 464] | < 0.01 |  |
| CCC(=O)N[C@@H](C(=O)N1CCN(CC)C(C)(C)C1)[C@@H](C)c1ccc(NC(=O)[C@@H](NC(=O)c2nonc2CC)[C@H]2CC[C@H](C)CC2)c(F)c1 [Compound 466] |  | A (compounds having a pIC50 of greater than or equal 8 as A) |
| CCC(=O)N[C@@H](C(=O)N1CCN(CC)[C@@H](C)C1)[C@@H](C)c1ccc(NC(=O)[C@@H](NC(=O)c2nonc2CC)[C@H]2CC[C@H](C)CC2)c(F)c1 [Compound 467] | < 0.01 |  |
| CCC(=O)N[C@@H](C(=O)N1CCC(F)(F)CC1)[C@@H](C)c1ccc(NC(=O)[C@@H](NC(=O)c2nonc2CC)[C@H]2CC[C@H](C)CC2)c(F)c1 [Compound 468] | 0.01 to 0.1 |  |
| CCn1nccc1C(=O)N[C@H](C(=O)Nc1ccc([C@H](C)[C@@H](NC(=O)[C@H](C)CC(=O)O)C(=O)N2CCN(C)CC2)cc1F)[C@H]1CC[C@H](C)CC1 [Compound 474] | 0.01 to 0.1 |  |
| CCn1nccc1C(=O)N[C@H](C(=O)Nc1ccc([C@H](C)[C@@H](NC(=O)[C@@H]2CCCO2)C(=O)N2CCN(C)CC2)cc1F)[C@H]1CC[C@H](C)CC1 [Compound 477] | 0.01 to 0.1 |  |
| CCn1nccc1C(=O)N[C@H](C(=O)Nc1ccc([C@H](C)[C@@H](NC(=O)C(C)(F)F)C(=O)N2CCN(C)[C@@H](C)C2)cc1F)[C@H]1CC[C@H](C)CC1 [Compound 479] | < 0.01 |  |
| CCn1nccc1C(=O)N[C@H](C(=O)Nc1ccc([C@H](C)[C@@H](NC(=O)C(F)(F)CC)C(=O)N2CCN(C)[C@H](C)C2)cc1F)[C@H]1CC[C@H](C)CC1 [Compound 481] | < 0.01 |  |

More lines, main results first:

| IC50 [µM] | Structure (SMILES) | IL-17A/A inhibition (pIC50) |
| --- | --- | --- |
| < 0.01 | CCn1nccc1C(=O)N[C@H](C(=O)Nc1ccc([C@H](C)[C@@H](NC(=O)C(C)C2CC2)C(=O)N2CCN(C)[C@H](C)C2)cc1F)[C@H]1CC[C@H](C)CC1 (stereo partly drawn) [Compound 434] |  |
| < 0.01 | CCC(=O)N[C@@H](C(=O)N1CCN(C)[C@@H](C)C1)[C@@H](C)c1ccc(NC(=O)[C@@H](NC(=O)c2ccnn2CC)[C@H]2CC[C@H](C)CC2)c(F)c1 [Compound 435] |  |
| < 0.01 | CCC(=O)N[C@@H](C(=O)N1CCN(C)[C@H](C)C1)[C@@H](C)c1ccc(NC(=O)[C@@H](NC(=O)c2ccnn2CC)[C@H]2CC[C@H](C)CC2)c(F)c1 [Compound 436] |  |
| < 0.01 | CCC(=O)N[C@@H](C(=O)N1CCC(C)(OC)CC1)[C@@H](C)c1ccc(NC(=O)[C@@H](NC(=O)c2ccnn2CC)[C@H]2CC[C@H](C)CC2)c(F)c1 [Compound 437] |  |
| 0.01 to 0.1 | CCn1nccc1C(=O)N[C@H](C(=O)Nc1ccc([C@H](C)[C@@H](NC(=O)c2cnns2)C(=O)N2CCNC3(CC3)C2)cc1F)[C@H]1CC[C@H](C)CC1 [Compound 438] |  |
| 0.01 to 0.1 | CCn1nccc1C(=O)N[C@H](C(=O)Nc1ccc([C@H](C)[C@@H](NC(=O)c2cnns2)C(=O)N2CCN(C)C3(CC3)C2)cc1F)[C@H]1CC[C@H](C)CC1 [Compound 439] |  |
| < 0.01 | CCn1nccc1C(=O)N[C@H](C(=O)Nc1ccc([C@H](C)[C@@H](NC(=O)c2cnns2)C(=O)N2CCC(C)(O)CC2)cc1F)[C@H]1CC[C@H](C)CC1 [Compound 440] |  |
| < 0.01 | CCn1nccc1C(=O)N[C@H](C(=O)Nc1ccc([C@H](C)[C@@H](NC(=O)c2cnns2)C(=O)N2CCN(Cc3ccccc3)CC2)cc1F)[C@H]1CC[C@H](C)CC1 [Compound 441] |  |
| 0.01 to 0.1 | CCn1nccc1C(=O)N[C@H](C(=O)Nc1ccc([C@H](C)[C@@H](NC(=O)C2CC2)C(=O)N2CCN(C)CC2)cc1F)[C@H]1CC[C@H](C)CC1 [Compound 469] |  |
| 0.01 to 0.1 | CCn1nccc1C(=O)N[C@H](C(=O)Nc1ccc([C@H](C)[C@@H](NC(=O)[C@@H](C)F)C(=O)N2CCN(C)CC2)cc1F)[C@H]1CC[C@H](C)CC1 [Compound 470] |  |
| 0.01 to 0.1 | CCn1nccc1C(=O)N[C@H](C(=O)Nc1ccc([C@H](C)[C@@H](NC(=O)C(C)(F)F)C(=O)N2CCN(C)CC2)cc1F)[C@H]1CC[C@H](C)CC1 [Compound 471] |  |
| 0.01 to 0.1 | CCn1nccc1C(=O)N[C@H](C(=O)Nc1ccc([C@H](C)[C@@H](NC(=O)[C@H](C)F)C(=O)N2CCN(C)CC2)cc1F)[C@H]1CC[C@H](C)CC1 [Compound 472] |  |
| 0.01 to 0.1 | CCn1nccc1C(=O)N[C@H](C(=O)Nc1ccc([C@H](C)[C@@H](NC(=O)c2nonc2C)C(=O)N2CCN(C)CC2)cc1F)[C@H]1CC[C@H](C)CC1 [Compound 473] |  |
| < 0.01 | CCn1nccc1C(=O)N[C@H](C(=O)Nc1ccc([C@H](C)[C@@H](NC(=O)[C@H](C)OC)C(=O)N2CCN(C)CC2)cc1F)[C@H]1CC[C@H](C)CC1 [Compound 476] |  |
| 0.01 to 0.1 | CCn1nccc1C(=O)N[C@H](C(=O)Nc1ccc([C@H](C)[C@@H](NC(=O)COC)C(=O)N2CCN(C)CC2)cc1F)[C@H]1CC[C@H](C)CC1 [Compound 478] |  |
| < 0.01 | CCn1nccc1C(=O)N[C@H](C(=O)Nc1ccc([C@H](C)[C@@H](NC(=O)C(C)(F)F)C(=O)N2CCN(C)[C@H](C)C2)cc1F)[C@H]1CC[C@H](C)CC1 [Compound 480] |  |
| 0.01 to 0.1 | CCn1nccc1C(=O)N[C@H](C(=O)Nc1ccc([C@H](C)[C@@H](NC(=O)C2(F)CCC2)C(=O)N2CCN(C)[C@H](C)C2)cc1F)[C@H]1CC[C@H](C)CC1 [Compound 482] |  |
| 0.01 to 0.1 | CCn1nccc1C(=O)N[C@H](C(=O)Nc1ccc([C@H](C)[C@@H](NC(=O)OC)C(=O)N2CCN(C)CC2)cc1F)[C@H]1CC[C@H](C)CC1 [Compound 483] |  |
| 0.01 to 0.1 | CCn1nccc1C(=O)N[C@H](C(=O)Nc1ccc([C@H](C)[C@@H](NC(=O)OC2CC2)C(=O)N2CCN(C)CC2)cc1F)[C@H]1CC[C@H](C)CC1 [Compound 484] |  |
